Test results taken from patent publication US9901637B2, “Vitamin D3 and analogs thereof for treating alopecia” (priority 2009, dated 2018).
Read-outs that look alike come from different tables or passages of the source.

What was measured:
[1] = system: MCF-7 (breast cancer with p53 mutation); assay: Cell growth/viability assay, calcitriol with or without chemotherapy drug; format: cell-based
HEKa cells [2] = assay: Proteomic analysis (2-D gel electrophoresis) of calcitriol-treated HEKa; format: cell-based, human; conditions: 0.1 μg/mL calcitriol
Procedure: The cell pellets were then analyzed using proteomic methods, such as 2-D gel and Western blot analysis. […] In all, analysis of about 458 protein spots in the comparative study was performed, comparing the control sample against the 3-, 6-, and 24-hour treatment samples. Six spots showing statistically significant differential changes were identified. These spots were excised, and their protein contents subjected to sequence identification by trypsin digestion and mass spectrometry characterization.

NCI-ES-0808 = assay: Cell growth/viability assay, calcitriol with or without chemotherapy drug; format: cell-based
[3] = system: chemotherapy-induced alopecia (CIA); conditions: for protection from etoposide-induced alopecia: etoposide 1.5 mg/kg daily for 3 days
Procedure: Specifically, Long Evans and Sprague Dawley rats with pups were purchased from Harlan Laboratories, Inc. They were housed and fed according to applicable animal handling rules and regulations. Pups were allowed to acclimate for 48 hours prior to the start of experiments. […] Rats were isolated from their littermates and mother for 6-hour periods of time. Subsequently, the treated area was cleaned with soap and water and pups were returned to their litters. On day 13, rats either received etoposide (1.5 mg/kg daily for 3 days) or cyclophosphamide (CTX) (37.5 mg/kg once) or combination cyclophosphamide (35 mg/kg once) and doxorubicin (2.5 mg/kg daily for 3 days). All chemotherapies were purchased from Sigma and were given intraperitoneally (i.p.) in a total volume of 0.1 mL. Alopecia was recorded 10 days after the last dose of chemotherapy.

HEKa cells [4] = assay: Protective effect of calcitriol on HEKa cells against chemotherapeutic drugs; format: cell-based, human; conditions: 0.1 μg/mL calcitriol
Procedure: These include: erlotinib (Tarceva), an EGFR Tyr kinase inhibitor; gefutubib (Iressa), an EGFR Tyr kinase inhibitor; sorafenib, inhibitor of several Tyr kinases (Raf, VEGF-R2, c-kit, PDGR-R); Dasatinib, a BCR/ABL Tyr kinase inhibitor; and staurosporin, a relatively nonspecific kinase inhibitor.
The drug treatment period was usually three days. At the end of the three days, the background OD of the 96-well plate was read at 280 nm, before 20 μL of the “Substrate Cell Titer 96 Aqueous One Solution Reagent” (Promega) was added to each well. The plate was returned to the 37° C. incubator, and its OD at 490 nm was read each hour until an OD of approximately 1.5 was reached. The net OD increase was calculated by subtracting the pre-substrate OD reading.
The impact of the drug on the cells was calculated by comparing the OD at different concentrations in relation to the OD of the control wells (without the drug).

[5] = system: NIH-3T3 (immortalized fibroblast); assay: Cell growth/viability assay, calcitriol with or without chemotherapy drug; format: cell-based
[6] = system: Primary human epidermal keratinocytes (HEKa); assay: Real-time PCR array, Neuroscience and Ion Channels Array, calcitriol-treated HEKa; format: cell-based; conditions: HEKa cells, 0.1 μg/mL calcitriol, three independent experiments
Procedure: (§1) Changes in mRNA levels were evaluated using real-time PCR quantification to assess mRNA levels in preselected subsets containing 80 pathway specific targets (see Appendix). The PCR array analysis utilized two groups of genes—those related to Heat Shock Proteins (SABiosciences), and those related to Neuroscience Ion Channels and Transporters (SABioscience). Primary human epidermal keratinocytes (HEKa) were maintained in Epilife Medium (Cascade Biologics, Inc., Portland Oreg.) along with Human Keratinocyte Growth Supplement (Cascade Biologics, Inc., Portland Oreg.). […] Vehicle control group of cells were treated with 5 mL media containing 1 μL of ethanol. Cells were harvested 3, 6, 16, 24, 48, or 72 hours after the start of the treatment. Cells were lysed for RNA isolation at different treatment times using the RNeasy Mini kit (Qiagen, Inc., Valencia Calif.) following the manufacturer's instructions. RNA was quantified by measuring optical density at 260 nm. First Strand Synthesis: […] Products from the first strand synthesis were diluted with water, mixed with the SYBR green master mix (SABiosciences, Frederick Md.) and loaded onto PCR arrays. Real time PCR was run on the PCR Arrays (Heat Shock Protein Arrays, and Neuroscience and Ion Channel Arrays) (SABiosciences, Frederick Md.) on a Biorad CFX96. Data analyses were performed using the PCR array data analysis software available on the SABiosciences website.

PC-3 = assay: Cell viability assay after calcitriol exposure for two passages; format: cell-based; conditions: PC-3, 0.1 μg/mL calcitriol for two passages
Procedure: Then these pretreated cells were utilized to set up the cell-based assay. […] Three commonly used chemotherapy drugs (doxorubicin, cisplatin and erlotinib) were selected to evaluate calcitriol treated cells. […] In these experiments, the commercial drugs were serially diluted, starting at a concentration 4-times higher than the final desired concentration for cell incubation.

SKMEL-28 (melanoma) = assay: Cell growth/viability assay, calcitriol with or without chemotherapy drug; format: cell-based
[7] = system: Primary human epidermal keratinocytes (HEKa); assay: Real-time PCR array, Heat Shock Protein Array, calcitriol-treated HEKa; format: cell-based; conditions: HEKa cells, 0.1 μg/mL calcitriol
Procedure: as §1

[8] = Preliminary animal toxicology study; format: in vivo; conditions: dose of about 100 μg
[9] = system: SkBr-3 (breast adenocarcinoma cancer, Her2 overexpressed); assay: Cell growth/viability assay, calcitriol with or without chemotherapy drug; format: cell-based

What does the source list for C=C1/C(=C\C=C2/CCC[C@]3(C)[C@@H]([C@H](C)CCCC(C)(C)O)CC[C@@H]23)C[C@@H](O)C[C@@H]1O [Calcitriol, 1,25-dihydroxyvitamin D3]?
concentrations giving calcitriol growth inhibition ([1]; MCF-7): > 0.5 µg/mL; concentrations giving calcitriol growth stimulation ([1]; MCF-7): 0.05 to 0.25 µg/mL; effect on the cytotoxic effect of Doxorubicin ([1]; MCF-7): did not appear to appreciably alter; response to other drugs (doxorubucin, cisplatin, erlotinib) after calcitriol exposure ([1]; MCF-7, 0.1 μg/mL calcitriol for two passages): did not alter; Glutathione S-transferase (GST) Response (HEKa cells [2]; at 3, 6, and 24 hours, 2-D gel spot 4): up at 3,; S100 A13 Response (HEKa cells [2]; at 6 and 24 hours, spot 14): up at; Galectin 1 (LGALS1) Response (HEKa cells [2]; at 6 and 24 hours, spot 27): up at; Keratin 1 (KRT1) Response (HEKa cells [2]; at 6 hours, spot 2): up at; effect of calcitriol on cell growth (NCI-ES-0808): no significant growth promoting or growth inhibiting effects; effect on the cytotoxic effect of Doxorubicin (NCI-ES-0808): did not appear to appreciably alter; dosage protective against CIA ([3]; neonatal rat, administered as 100 μL of 2 μg/mL topical solution): about 0.2 μg; protection from etoposide-induced alopecia ([3]; neonatal rats, 0.1 μg of calcitriol topical for 6 hours daily, 6 days): partial localized protection; protection from cyclophosphamide-induced alopecia ([3]; neonatal rats, 0.3 μg calcitriol topical, cyclophosphamide 37.5 mg/kg once): full body protection; protection from etoposide-induced alopecia ([3]; neonatal rats, 0.3 calcitriol topical): total body protection; protective effect against 5-FU (HEKa cells [4]): mild protective effect; protective effect against Paxlitaxol (paclitaxel) (HEKa cells [4]): some protective effects; protective effect against gemcitabine (HEKa cells [4]): mild protective effect; protective effect against irinotecan (HEKa cells [4]): positive protective effect; protective effect against tamoxifen (HEKa cells [4]): weak; protective effect against the cytotoxic effect of doxorubicin (HEKa cells [4]): did not appear to provide a significant protective effect; protection against alkylating agents cisplatin and carboplatin (HEKa cells [4]; low dosage levels): moderate level of protection; protective effect against kinase inhibitor drugs (erlotinib, gefitinib, sorafenib, dasatinib, staurosporin) (HEKa cells [4]; low drug dosage levels): protected the HEKa cells; effect of calcitriol on cell growth [5]: no significant growth promoting or growth inhibiting effects; effect on the cytotoxic effect of Doxorubicin [5]: did not appear to appreciably alter; Stratum Corneum, Calcitriol Recovered, Mean ± SD (Female Minipigs, 1 μg/mL dermal twice daily 7 days): 0.76 ± 1.3 (3) ng/cm2; Stratum Corneum, Calcitriol Recovered, Mean ± SD (Female Minipigs, 3 μg/mL dermal twice daily 7 days): 1.12 ± 1.49(3) ng/cm2; Stratum Corneum, Calcitriol Recovered, Mean ± SD (Female Minipigs, 10 μg/mL dermal twice daily 7 days): 1.65 ± 1.80 (3) ng/cm2; Stratum Corneum, Calcitriol Recovered, Mean ± SD (Female Minipigs, 30 μg/mL dermal twice daily 7 days): 20.2 ± 11.7 (3) ng/cm2; Stratum Corneum, Calcitriol Recovered, Mean ± SD (Male Minipigs (1 animal), 100 μg/mL dermal twice daily 7 days): 118.1 ± 11.4 (1) ng/cm2; Stratum Corneum, Calcitriol Recovered, Mean ± SD (Male Minipigs, 1 μg/mL dermal twice daily 7 days): 56.1 ± 17.4 (3) ng/cm2; Stratum Corneum, Calcitriol Recovered, Mean ± SD (Male Minipigs, 3 μg/mL dermal twice daily 7 days): 62.4 ± 7.91 (3) ng/cm2; Stratum Corneum, Calcitriol Recovered, Mean ± SD (Male Minipigs, 10 μg/mL dermal twice daily 7 days): 59.6 ± 14.1 (3) ng/cm2; Stratum Corneum, Calcitriol Recovered, Mean ± SD (Male Minipigs, 30 μg/mL dermal twice daily 7 days): 54.6 ± 32.5 (3) ng/cm2; applied dose correlation to tissue level in the epidermis (minipigs, calcitriol concentrations from 3 to 100 μg/mL): near linear increase; SLC1A1 mRNA Regulation Pattern ([6]; at 16 hrs): upregulated; KCNN4 mRNA Regulation Pattern ([6]; at 48 hours): upregulated at 48; KCNB2 mRNA Regulation Pattern ([6]; until 24 hours): upregulated until; response to other drugs (doxorubucin, cisplatin, erlotinib) after calcitriol exposure (PC-3): did not alter; effect of calcitriol on cell growth (SKMEL-28 (melanoma); SKMEL-28): no significant growth promoting or growth inhibiting effects; effect on the cytotoxic effect of Doxorubicin (SKMEL-28 (melanoma); SKMEL-28): did not appear to appreciably alter; 5-FU ED50 curve with versus without calcitriol (SKMEL-28 (melanoma); SKMEL-28, 0.1 μg/mL calcitriol): not significantly different; HSPB1 (Heat shock 27 kDa protein 1) mRNA Regulation Pattern ([7]; regulated in two independent experiments): Down regulated at 48 hours; DNAJC6 (DnaJ (Hsp40) homolog, subfamily C, member 6) mRNA Regulation Pattern ([7]; two independent experiments): Downregulated; HSF4 (Heat shock transcription factor 4) mRNA Regulation Pattern ([7]; two independent experiments): Upregulated at 48 hours; HSPA2 (Heat shock 70 kDa protein 2) mRNA Regulation Pattern ([7]; two independent experiments): Upregulated at 48 hours; dermal irritation [8]: no dermal irritation; skin penetration [8]: excellent epidermal penetration without substantial dermal penetration; effect of calcitriol on cell growth [9]: no significant growth promoting or growth inhibiting effects; effect on the cytotoxic effect of Doxorubicin [9]: did not appear to appreciably alter
